In patent publication US20090030086A1, “ANTIMICROBIAL AGENTS” (priority 2005, published 2009):
≈ marks a conversion by molar mass, not a printed value.

Legend:
[1] = tested on: P. acnes NCTC 737; experiment: Disc diffusion assay (DDA); assay type: cell-based, Propionibacterium acnes; details: Cutibacterium acnes, NCTC737; P. acnes NCTC 737; unsupplemented agar; 200 μg per disc (2,6-dimethoxy-p-benzoquinone 100 μg); read-out: DDA (diameter of zone of inhibition)
[2] = tested on: H. influenzae ATCC 49247; experiment: MBC assay; assay type: cell-based, Haemophilus influenzae
Protocol: The H. influenzae strain was cultured and maintained on Haemophilus Test Medium (HTM) agar/broth (the composition of which is as described in NCCLS M7-A6 Vol. 23 No. 2); cultures were incubated in a CO2 atmosphere at 37° C. for 24 hours.
(§1) This assay, normally carried out after an MIC assay, determines the minimum concentration of a compound that is lethal to the micro-organism being tested.
(§2) These samples were then individually sub-cultured on non-selective agar medium, under the incubation conditions described above. Following incubation they were examined visually for bacterial growth.
(§3) The activity of TBHQ against three other bacterial strains was investigated using MIC, MBC and DDA assays as described above. For the DDA assays, 200 μg of TBHQ was loaded onto each disc, using ethanol as the solvent.

[3] = tested on: P. granulosum PPR-006; experiment: MIC assay; assay type: cell-based
Protocol: (§4) The Propionibacterium spp organisms were cultured and maintained on Wilkins-Chalgren Anaerobe Medium (agar and broth) at pH 6.0; cultures were incubated anaerobically at 37° C. for 72 hours.
This is a standard international method for quantitatively assessing the antimicrobial activity of a compound in a liquid medium. The method used a 96-well microtitre plate, capable of holding about 200 μl of liquid per well. […] The culture media were as described above for the relevant test organisms.
The wells were inoculated with a liquid suspension of freshly grown micro-organism and incubated under the conditions described above. After incubation, the microtitre plate was examined visually (with the aid of a light box) for cloudiness in each well, which would indicate microbial growth. The MIC value was recorded as the lowest concentration of test compound required to inhibit microbial growth, i.e., the lowest concentration for which the liquid in the well remained clear.
The assays were conducted in duplicate and included both negative (culture medium only) and positive (culture medium, diluting solvent and inoculum) controls.
The activity of TBHQ was tested against other Propionibacterium spp strains, including some with known antibiotic resistance. MIC, MBC and DDA assays were carried out as described above for each of the strains.

[4] = tested on: S. pyogenes ATCC 12344; experiment: MBC assay; assay type: cell-based, Streptococcus pyogenes
Protocol: The S. pyogenes strain was cultured and maintained on Mueller-Hinton agar with 5% v/v defibrinated horse blood, and grown in Mueller-Hinton broth supplemented with 5% lysed horse blood (lysed horse blood was prepared as described in the NCCLS M7-A6 Vol. 23 No. 2); cultures were incubated aerobically at 37° C. for 24 hours.
as §1, §2, §3

[5] = tested on: P. acnes PRP-003; experiment: Disc diffusion assay (DDA); assay type: cell-based, Propionibacterium acnes; details: resistance Tet, 200 μg per disc
Protocol: as §4
(§5) A sterile paper disc was impregnated with a sample of the test compound and a minimum of 30 minutes allowed for the solvents to evaporate as far as possible. The disc was then placed on an agar plate onto which the test micro-organism had been inoculated. The plate was then incubated under the conditions described above, following which it was examined visually for signs of bacterial growth. If the test compound had antimicrobial activity, a circular zone of no growth would be obtained around the disc. The diameter of this zone of “inhibition” was measured using a ProtoCOL™ automated zone sizer (Synbiosis, Cambridge, UK). In general, a greater diameter and/or area of the zone of inhibition indicates a greater antimicrobial activity in the relevant test compound, although other factors such as test compound mobility through the agar gel may also influence the result.
(§6) The area of the zone of inhibition was calculated from the measured zone diameter (D) using the formula π(D/2)^2.
(§7) For the DDA assays, 200 μg of TBHQ was loaded onto each disc. The solvent used for the TBHQ was ethanol.

[6] = tested on: P. acnes PRP-053; experiment: Disc diffusion assay (DDA); assay type: cell-based, Propionibacterium acnes; details: resistance Tet/MLS, 200 μg per disc
Protocol: as §4, §5, §6, §7

[7] = tested on: P. acnes PRP-023; experiment: Disc diffusion assay (DDA); assay type: cell-based, Propionibacterium acnes; details: resistance MLSK, 200 μg per disc
Protocol: as §4, §5, §6, §7

[8] = tested on: P. acnes PRP-026; experiment: Disc diffusion assay (DDA); assay type: cell-based, Propionibacterium acnes; details: resistance MLS, 200 μg per disc
Protocol: as §4, §5, §6, §7

[9] = tested on: P. acnes PRP-068; experiment: Disc diffusion assay (DDA); assay type: cell-based, Propionibacterium acnes; details: resistance Ery, 200 μg per disc
Protocol: as §4, §5, §6, §7

[10] = tested on: P. acnes PRP-102; experiment: Disc diffusion assay (DDA); assay type: cell-based, Propionibacterium acnes; details: resistance Tet/MLS, 200 μg per disc
Protocol: as §4, §5, §6, §7

[11] = tested on: P. acnes PPR-007; experiment: Disc diffusion assay (DDA); assay type: cell-based, Propionibacterium acnes; details: resistance Clin, 200 μg per disc
Protocol: as §4, §5, §6, §7

[12] = tested on: P. acnes PRP-046; experiment: Disc diffusion assay (DDA); assay type: cell-based, Propionibacterium acnes; details: resistance None, 200 μg per disc
Protocol: as §4, §5, §6, §7

[13] = tested on: P. acnes PRP-008; experiment: Disc diffusion assay (DDA); assay type: cell-based, Propionibacterium acnes; details: resistance Clin, 200 μg per disc
Protocol: as §4, §5, §6, §7

[14] = tested on: P. acnes PRP-059; experiment: Disc diffusion assay (DDA); assay type: cell-based, Propionibacterium acnes; details: resistance MLS, 200 μg per disc
Protocol: as §4, §5, §6, §7

[15] = tested on: P. acnes PRP-004; experiment: Disc diffusion assay (DDA); assay type: cell-based, Propionibacterium acnes; details: resistance Tet, 200 μg per disc
Protocol: as §4, §5, §6, §7

[16] = tested on: P. acnes PRP-002; experiment: Disc diffusion assay (DDA); assay type: cell-based, Propionibacterium acnes; details: resistance Tet/MLS, 200 μg per disc
Protocol: as §4, §5, §6, §7

[17] = tested on: P. acnes PRP-101; experiment: Disc diffusion assay (DDA); assay type: cell-based, Propionibacterium acnes; details: resistance Tet/MLS, 200 μg per disc
Protocol: as §4, §5, §6, §7

[18] = tested on: P. acnes PRP-017; experiment: Disc diffusion assay (DDA); assay type: cell-based, Propionibacterium acnes; details: resistance MLS, 200 μg per disc
Protocol: as §4, §5, §6, §7

[19] = tested on: E. faecalis ATCC 29212; experiment: MBC assay; assay type: cell-based, Enterococcus faecalis
Protocol: The staphylococci and enterococci were cultured and maintained on Mueller-Hinton Medium (agar and broth) at pH 7.2; they were incubated aerobically at 37° C. for 24 hours.
as §1, §2, §3

CC(C)(C)c1cc(O)ccc1O [TBHQ, 2-t-butyl hydroquinone]
zone of inhibition at 200 µg/disc [1]: 9.95 mm | MIC/MBC ratio [2]: 1 | MBC ([2]; Haemophilus influenzae, ATCC49247): 15.6 mg/L (≈ 93.9 µM) | MIC [3]: 7.8 mg/L (≈ 46.9 µM) | MIC/MBC ratio [4]: 1 | MBC ([4]; Streptococcus pyogenes, ATCC12344): 62.5 to 125 mg/L (≈ 376 to 752 µM) | DDA [5]: 38.01 mm | DDA [6]: 23.49 mm | DDA [7]: 23.90 mm | DDA [8]: 8.18 mm | DDA [9]: 20.89 mm | DDA [10]: 23.80 mm | DDA [11]: 13.43 mm | DDA [12]: 17.46 mm | DDA [13]: 14.47 mm | DDA [14]: 17.56 mm | DDA [15]: 30.32 mm | DDA [16]: 28.42 mm | DDA [17]: 0.0 mm | DDA [18]: 18.40 mm | MIC/MBC ratio [19]: 0.5
